Results on 21 molecules are retold here after patent US7655808B2, “Leptomycin compounds” (priority 2004, dated 2010).

The test system of data set [1] is CCRF-CEM. In words: Inhibition of proliferation / cytotoxicity, CCRF-CEM. Type of data set: cell-based. The settings on record: CCRF-CEM human leukemia cell line; read-out: Tumor Cell Line (IC50, nM) CCRF-CEM. As to the method: (§1) The biological activity of compounds of this invention was evaluated by measuring their inhibitory effect on the proliferation of various tumor cell lines. MCF-7, A549, and SKOV-3 are human breast, lung, and ovary cancer cell lines, respectively. NCI/ADR is a multi-drug resistant breast cancer cell line. CCRF-CEM and CCRF-CEM/PTX are human leukemia cell lines, the latter being a paclitaxel-resistant subline. LNCaP is a prostate cancer cell line.

The nature of data set [2]: Mouse maximum tolerated dose, single dose intravenous. The format is in vivo. To be noted: mice, single dose intravenous administration. As for the experimental part:
The maximum tolerated dose (MTD) in mice, upon single dose intravenous administration was determined for a representative selection of compounds. The data are summarized in Table 4, with comparative data for LMB included.

The subject of data set [3] is CCRF-CEM/PTX. In words: Inhibition of proliferation / cytotoxicity, CCRF-CEM/PTX. Type of data set: cell-based. To be noted: CCRF-CEM/PTX paclitaxel-resistant human leukemia subline; read-out: Tumor Cell Line (IC50, nM) CCRF-CEM/PTX. As to the method:
as §1

Data set [4] has as its system SKOV-3. In words: Inhibition of proliferation / cytotoxicity, SKOV-3. The format is cell-based. To be noted: SKOV-3 human ovary cancer cell line; read-out: Tumor Cell Line (IC50, nM) SKOV-3. As to the method: as §1
The test system of data set [5] is LNCaP. In words: Inhibition of proliferation / cytotoxicity, LNCaP. Type of data set: cell-based. To be noted: LNCaP prostate cancer cell line; read-out: Tumor Cell Line (IC50, nM) LNCaP. As to the method: as §1
Data set [6] deals with MB 49 cells. In words: Cytotoxicity against MB 49 murine bladder cancer cells. The format is cell-based. The source says: Table 5 presents data on the cytotoxicity of LMB and selected compounds of this invention against MB 49 cells, a line of murine bladder cancer cells.
Data set [7] has as its system MCF-7. In words: Inhibition of proliferation / cytotoxicity, MCF-7. The settings on record: MCF-7 human breast cancer cell line; read-out: Tumor Cell Line (IC50, nM) MCF-7. Type of data set: cell-based. As for the experimental part:
as §1

The test system of data set [8] is NCI/ADR. The data set is described as follows: Inhibition of proliferation / cytotoxicity, NCI/ADR. The format is cell-based. To be noted: NCI/ADR multi-drug resistant breast cancer cell line; read-out: Tumor Cell Line (IC50, nM) NCI/ADR. As to the method: as §1
Data set [9] concerns A549. The data set is described as follows: Inhibition of proliferation / cytotoxicity, A549. Type of data set: cell-based. To be noted: A549 human lung cancer cell line; read-out: Tumor Cell Line (IC50, nM) A549. As to the method: as §1
The test system of data set [10] is K562 cells. In words: Cytotoxicity against Bcr-Abl positive K562 cells. Type of data set: cell-based. To be noted: K562, Bcr-Abl positive CML cell line. An excerpt:
Data was also obtained for the cytotoxicity of several compounds of this invention against K562, a Bcr-Abl positive CML cell line, as shown in Table 3 with comparative data for LMB included.

The conditions of data set [11]: Kudo et al., Exp. Cell Res. 1998; cited from earlier work.

For the molecule `CCC(C=CC1OC(=O)C=CC1C)=CC(C)CC=CC(C)=CC(C)C(=O)C(C)C(O)C(C)CC(C)=CC(=O)NCCc1cccnc1` (stereo not shown) [Compound 4], the IC50 amounted to 1 nM in data set [1]; 1.4 nM in data set [3]; 2.8 nM in data set [4]; 0.5 nM in data set [5]; 5.9 nM in data set [6]; 0.32 nM in data set [7]. The IC50 in [8] worked out at 19 nM; in [9], 0.84 nM; in data set [10], 1.7 nM. Also, in data set [2], the “Mouse MTD” value is recorded as 40 mg/kg.

For the molecule `CCC(C=CC1OC(=O)C=CC1C)=CC(C)CC=CC(C)=CC(C)C(=O)C(C)C(O)C(C)CC(C)=CC(=O)NCCCN1CCOCC1` (stereo not shown) [Compound 8], the IC50 was 0.98 nM in data set [1]; 2.1 nM in data set [3]; 2.5 nM in data set [4]; 0.5 nM in data set [5]; 6.8 nM in [6]; 0.3 nM in data set [7]. The IC50 in data set [8] is 39 nM; in data set [9] it was 0.84 nM; in data set [10], 1 nM. Besides, the “Mouse MTD” value in data set [2] stood at 20 mg/kg.

As for `CCC(C=CC1OC(=O)C=CC1C)=CC(C)CC=CC(C)=CC(C)C(=O)C(C)C(O)C(C)CC(C)=CC(=O)NCCNC(=O)OC(C)(C)C` (stereo not shown) [Compound 6], the IC50 stood at 1.1 nM in data set [1]; 2.3 nM in data set [3]; 1.2 nM in [4]; 0.32 nM in data set [7]; 34 nM in data set [8]; 1.3 nM in data set [9].

Consider `CCC(C=CC1OC(=O)C=CC1C)=CC(C)CC=CC(C)=CC(C)C(=O)C(C)C(O)C(C)CC(C)=CC(=O)NCCOc1ccccc1` (stereo not shown) [Compound 9], for which the IC50 in data set [1] amounted to 1.9 nM; in data set [3], 2.5 nM; in [4] it was 4.3 nM; in [7] it was 0.64 nM; in [8], 37 nM; in data set [9], 2.8 nM.

As for `CCC(C=CC1OC(=O)C=CC1C)=CC(C)CC=CC(C)=CC(C)C(=O)C(C)C(O)C(C)CC(C)=CC(=O)NCCC1OCCO1` (stereo not shown) [Compound 11], the IC50 in [1] was found to be 0.43 nM; in data set [3], 0.47 nM; in [4], 1.5 nM; in data set [7], 0.3 nM; in data set [8] it was 5.8 nM; in data set [9] it was 0.67 nM.

As for `CCC(C=CC1OC(=O)C=CC1C)=CC(C)CC=CC(C)=CC(C)C(=O)C(C)C(O)C(C)CC(C)=CC(=O)NCCN(C)C` (stereo not shown) [Compound 7], the IC50 in [1] stood at 1.4 nM; in data set [3] it was 3.1 nM; in data set [4], 2.8 nM; in data set [5], 0.7 nM; in [7], 0.61 nM; in data set [8] it was 110 nM. Also, in data set [9], the IC50 worked out at 2.2 nM. The “Mouse MTD” value in [2] worked out at 15 mg/kg.

For `CCC(C=CC1OC(=O)C=CC1C)=CC(C)CC=CC(C)=CC(C)C(=O)C(C)C(O)C(C)CC(C)=CC(=O)NCCCCCNC(=O)COc1ccc(C2=NC(=Cc3ccc(-c4cccs4)n3B(F)F)C=C2)cc1` (stereo not shown) [Compound 20], the IC50 is 570 nM in data set [4]; 87.4 nM in data set [5]; 210 nM in data set [7]; 1000 nM in data set [8]; 250 nM in data set [9].

As to `CCC(C=CC1OC(=O)C=CC1C)=CC(C)CC=CC(C)=CC(C)C(=O)C(C)C(O)C(C)CC(C)=CC(=O)NCCNC(C)C` (stereo not shown) [Compound 17], the IC50 in data set [4] amounted to 44 nM; in data set [7], 3.5 nM; in data set [8], 740 nM; in data set [9] it was 4.7 nM.

In the case of `CCC(=C/[C@H](C)C/C=C/C(C)=C/[C@@H](C)C(=O)[C@@H](C)[C@H](O)[C@@H](C)C/C(C)=C/C(=O)OC)/C=C/[C@@H]1OC(=O)CC(C[N+](=O)[O-])[C@@H]1C` (stereo partly shown) [nitromethyl valerolactone LMB analog], the “activity of LMB analog” value in data set [11] is “inactive”.

Take `CCC(C=CC1OC(=O)C=CC1C)=CC(C)CC=CC(C)=CC(C)C(=O)C(C)C(O)C(C)CC(C)=CC(=O)NCCCCNC(=O)OC(C)(C)C` (stereo not shown) [Compound 14]: the IC50 in data set [1] turned out to be 1.7 nM; in data set [3], 2.4 nM; in data set [4], 2.5 nM; in [7], 0.3 nM; in data set [8], 33 nM; in [9] it was 1.6 nM.

On to `CCC(C=CC1OC(=O)C=CC1C)=CC(C)CC=CC(C)=CC(C)C(=O)C(C)C(O)C(C)CC(C)=CC(=O)NCCN` (stereo not shown) [Compound 15], for which the IC50 stood at 17 nM in data set [1]; 110 nM in [3]; 41 nM in [4]; 4.2 nM in data set [5]; 4.6 nM in data set [7]; 630 nM in data set [8]. The IC50 in data set [9] was 15 nM.

For the molecule `CCC(C=CC1OC(=O)C=CC1C)=CC(C)CC=CC(C)=CC(C)C(=O)C(C)C(O)C(C)CC(C)=CC(=O)Nc1ccc2cn[nH]c2c1` (stereo not shown) [Compound 5], the IC50 in data set [1] came to 3.1 nM; in data set [3] it was 9 nM; in [4], 5.9 nM; in data set [7], 2 nM; in [8], 34 nM; in [9] it was 3.3 nM.

Take `CCC(C=CC1OC(=O)C=CC1C)=CC(C)CC=CC(C)=CC(C)C(=O)C(C)C(O)C(C)CC(C)=CC(=O)NCCO` (stereo not shown) [Compound 2]: the IC50 came out at 2.4 nM in data set [1]; 2.8 nM in data set [3]; 2.6 nM in data set [4]; 0.78 nM in data set [7]; 27 nM in data set [8]; 2.2 nM in [9].

On to `CCC(C=CC1OC(=O)C=CC1C)=CC(C)CC=CC(C)=CC(C)C(=O)C(C)C(O)C(C)CC(C)=CC(=O)NCc1c(C)c(=O)n2c(=O)c(C)c(C)n12` (stereo not shown) [Compound 18], for which the IC50 amounted to 15 nM in data set [4], 3.4 nM in [7], 380 nM in [8] and 4.3 nM in data set [9].

As for `CCC(C=CC1OC(=O)C=CC1C)=CC(C)CC=CC(C)=CC(C)C(=O)C(C)C(O)C(C)CC(C)=CC(=O)NCC(=O)O` (stereo not shown) [Compound 21], the IC50 in data set [4] came out at 57 nM; in data set [5] it was 28.6 nM; in [7], 31 nM; in [8], 260 nM; in data set [9], 37 nM.

Take `CCC(C=CC1OC(=O)C=CC1C)=CC(C)CC=CC(C)=CC(C)C(=O)C(C)C(O)C(C)CC(C)=CC(=O)NC` (stereo not shown) [Compound 1]: the IC50 in [1] was determined as 0.69 nM; in data set [3], 0.46 nM; in data set [4], 1.7 nM; in [5], 0.8 nM; in data set [7] it was 0.27 nM; in data set [8], 2.1 nM. Also, the IC50 in [9] was 0.36 nM. Further, the “Mouse MTD” value in data set [2] is listed as 5 mg/kg.

On to `CCC(C=CC1OC(=O)C=CC1C)=CC(C)CC=CC(C)=CC(C)C(=O)C(C)C(O)C(C)CC(C)=CC(=O)NCC(=O)OC` (stereo not shown) [Compound 10], for which the IC50 in data set [1] stood at 0.63 nM; in data set [3], 0.5 nM; in data set [4], 2.7 nM; in data set [5], 0.8 nM; in [7] it was 0.3 nM; in [8], 4.6 nM. For the same molecule, in data set [9], the IC50 is 1.4 nM.

With `CCC(=C/[C@H](C)C/C=C/C(C)=C/[C@@H](C)C(=O)[C@@H](C)[C@H](O)[C@@H](C)C/C(C)=C/C(=O)NCCCCCCNC(=O)CCCC[C@H]1SC[C@@H]2NC(=O)N[C@@H]21)/C=C/[C@@H]1OC(=O)C=C[C@@H]1C` [biotinylated LMB], the “activity of LMB analog” value in data set [11] was “active”.

As to `CCC(C=CC1OC(=O)C=CC1C)=CC(C)CC=CC(C)=CC(C)C(=O)C(C)C(O)C(C)CC(C)=CC(=O)NCCNC(=O)CCC1=NC(=Cc2c(C)cc(C)n2B(F)F)C=C1` (stereo not shown) [Compound 19], the IC50 is 20 nM in data set [4]; 1.6 nM in [5]; 3.4 nM in data set [7]; 300 nM in [8]; 4.6 nM in [9].

As to `CCC(C=CC1OC(=O)C=CC1C)=CC(C)CC=CC(C)=CC(C)C(=O)C(C)C(O)C(C)CC(C)=CC(=O)NCCNC` (stereo not shown) [Compound 16], the IC50 in data set [1] came out at 1.8 nM; in data set [3], 29 nM; in data set [4], 9.7 nM; in [5] it was 27.2 nM; in data set [7], 3.2 nM; in data set [8] it was 460 nM. Also, the IC50 in data set [9] was 3.5 nM.

For `CCC(C=CC1OC(=O)C=CC1C)=CC(C)CC=CC(C)=CC(C)C(=O)C(C)C(O)C(C)CC(C)=CC(=O)NCc1ccc(-c2ccccc2)cc1` (stereo not shown) [Compound 3], the IC50 in data set [1] turned out to be 3.5 nM; in data set [3], 17 nM; in [4], 13 nM; in data set [7], 3.7 nM; in data set [8], 150 nM; in [9] it was 13 nM.
